Entries after “also recorded” stand apart in the source; their conditions may differ.

The target in assay [1] is T1, alkaline phosphatase CmAP (Cobetia amphilecti, UniProt Q1W622). Details: method as in PMID 31181923. Particulars: cited from earlier work; for inhibitory activity against CmAP: previous study ref 33; for affinity relative to the chelator EDTA: CmAP, higher affinity than EDTA ref 33.
Assay [2] has as its system ALP. The arrangement: method as in PMID 25694083, PMID 37274413, PMID 36362051. The settings on record: standard inhibitory ligands of ALP ref 17-19; cited from earlier work.
For assay [3], the target named is Vibrio splendidus alkaline phosphatase (VAP). The arrangement: method as in PMID 33102813. The settings on record: cited from earlier work.
Assay [4] has as its target T1, alkaline phosphatase CmAP. In words: Inhibitory activity assay and kinetics on alkaline phosphatase CmAP (pNPP hydrolysis). Particulars: for IC50: 2 mM pNPP, 0.1 M Tris-HCl pH 10.0, 0.2 M KCl, 37 °C, 60 min preincubation, mean of three ± SD; for residual activity: at maximum inhibition; for Ki: by the Cheng–Prusoff formula Ki = IC50/(1 + [S]/Km); for type of inhibition: pNPP substrate; for Vmax in the presence of inhibitor: pNPP, guitarrin C 52.0 µM, guitarrin D 96.0 µM, 60 min preincubation at 23 °C, without inhibitor 5.98 ± 0.03. Format: biochemical, Cobetia amphilecti KMM 296. The procedure: (§1) The enzymatic activity was evaluated through the addition of 5 μL of the protein solution sample to a solution of 495 μL buffer, comprising 0.1 M Tris-HCl (pH 10.0), 0.2 M KCl, and 2 mM pNPP. The reaction mixture was incubated at 37 °C for a period of 30 min. To halt the reaction, 2 mL of chilled 0.5 M NaOH was introduced. The quantity of p-nitrophenol (pNP) produced was quantified spectrophotometrically at a wavelength of 400 nm, with the control sample, which lacked the enzyme, serving as a reference point. The specific activity was calculated using the following formula: (2.5 × OD400)/(18.6 × 0.005 × t × C), where OD400 is the optical density at a wavelength of 400 nm, 2.5 is the volume of the reaction mixture in mL, 18.6 is the extinction coefficient of pNP (M^−1/cm^−1), t is the incubation time at 37 °C in minutes, 0.005 is the sample volume in mL, and C is the protein concentration in the sample (mg/mL). The quantity of enzyme required for the generation of 1 µM pNP within a one-minute period was established as the unit of activity.
(§2) The effect of the natural inhibitors guitarrins C and D [33] on the activity of the alkaline phosphatases CmAP from C. amphilecti KMM 296 and calf intestinal alkaline phosphatase (CIAP, Invitrogen™ 18009019, Thermo Fisher Scientific, Waltham, MA, USA) was investigated in a buffer containing 0.1 M tris-HCl (pH 10.0) with 0.2 KCl. […] The activity of ALPs was determined using the standard method described above. CmAP (3.22 mg/mL, 2929 U/mg) and CIAP (0.99 mg/mL, 647 U/mg) were dissolved in 50 mM tris-HCl (pH 8.0) buffer with 2 mM MgCl2. Results were presented as the percentage of inhibition relative to control activity. The IC50 for each compound tested was defined as the concentration of compound that inhibited the enzyme activity by 50%. IC50 values are given as the mean of three experiments and standard deviation.
(§3) The kinetic parameters (Km and Vmax) were determined for alkaline phosphatases CmAP and CIAP. The mean Km values and standard deviations were presented. […] The inhibition constant, Ki, was determined using the Cheng–Prusoff formula [51]. The binding activity of the inhibitor to the reactive substrate (Ki) can be calculated using the following formula: Ki = IC50/(1 + [S]/Km), where IC50 is the functional activity of the inhibitor, [S] is the concentration of the reactive substrate, and KM is the Michaelis constant. The results were presented in the Origin 7.0 software.

Assay [5] addresses T2, calf intestinal alkaline phosphatase (CIAP) (Bos taurus, UniProt P19111).
T2 construct: purchased Invitrogen, Thermo Fisher Scientific 18009019
Kind of assay: Inhibitory activity assay on calf intestinal alkaline phosphatase (pNPP hydrolysis). Format: biochemical. Particulars: for IC50: 2 mM pNPP, 0.1 M Tris-HCl pH 10.0, 0.2 M KCl, 37 °C, 60 min preincubation, mean of three ± SD; for Ki: by the Cheng–Prusoff formula Ki = IC50/(1 + [S]/Km). The method, then:
as §1, §2, §3

T2 sequence (P19111 20-506 limits assumed): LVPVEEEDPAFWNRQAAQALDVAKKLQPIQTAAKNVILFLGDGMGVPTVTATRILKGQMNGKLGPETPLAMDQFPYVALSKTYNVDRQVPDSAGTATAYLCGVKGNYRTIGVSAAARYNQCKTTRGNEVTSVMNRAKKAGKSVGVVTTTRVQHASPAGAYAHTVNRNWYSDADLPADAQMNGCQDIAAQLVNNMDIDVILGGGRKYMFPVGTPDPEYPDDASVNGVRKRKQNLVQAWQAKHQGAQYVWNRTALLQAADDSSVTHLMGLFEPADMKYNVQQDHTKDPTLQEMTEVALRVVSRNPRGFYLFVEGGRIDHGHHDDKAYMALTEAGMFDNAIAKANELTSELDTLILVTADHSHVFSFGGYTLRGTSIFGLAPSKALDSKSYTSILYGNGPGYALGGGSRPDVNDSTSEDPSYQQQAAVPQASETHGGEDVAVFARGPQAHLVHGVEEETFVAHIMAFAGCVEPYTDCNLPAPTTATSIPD
T1 sequence (Q1W622 entry or part of it): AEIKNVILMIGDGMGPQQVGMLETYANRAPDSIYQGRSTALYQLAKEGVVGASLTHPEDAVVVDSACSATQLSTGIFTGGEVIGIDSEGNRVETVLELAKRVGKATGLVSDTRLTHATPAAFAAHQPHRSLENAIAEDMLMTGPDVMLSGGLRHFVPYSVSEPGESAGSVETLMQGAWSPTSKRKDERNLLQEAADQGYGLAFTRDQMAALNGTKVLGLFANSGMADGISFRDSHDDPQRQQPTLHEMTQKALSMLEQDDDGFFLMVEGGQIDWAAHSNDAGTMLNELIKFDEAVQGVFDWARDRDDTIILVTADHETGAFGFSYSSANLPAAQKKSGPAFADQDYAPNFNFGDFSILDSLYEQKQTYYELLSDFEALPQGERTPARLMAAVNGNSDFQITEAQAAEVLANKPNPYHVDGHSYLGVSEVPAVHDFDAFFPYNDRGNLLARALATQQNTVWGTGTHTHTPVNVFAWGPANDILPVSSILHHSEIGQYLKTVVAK

Regarding guitarrin A, the “inhibitory activity against CmAP” value in assay [1] is recorded as “no inhibitory activity; also recorded: non-inhibitory”.
For the compound `Cn1c(=O)c2[nH]cnc2n(C)c1=O` [theophylline], in assay [2], the IC50 is 47 µM and the inhibitory constant (Ki) was 91 µM.
`NC1CCCCC1` [cyclohexylamine]: in assay [3] (VAP ref 27), the IC50 is 35700 µM, the “Michaelis–Menten constant in the presence of inhibitor (unchanging)” value was 195 ± 4 µM and the type of inhibition entry is “non-competitive”. For the same compound, the inhibition constant (Ki) in assay [3] (VAP, Ki equal to IC50 ref 27) was 35700 µM.
`O=C(O)c1cc2[nH]ccc2c(CO)n1` [guitarrin C]: in assay [4], the “maximum inhibition of activity” value is on record as 85%, it took 8.5 ± 0.08 µM to reach half-maximal inhibition (IC50), the residual activity came to 15% and the Ki stood at 1.58 ± 0.04 µM. For the same compound, in assay [4], the type of inhibition entry is “non-competitive” and the “Vmax in the presence of inhibitor” value is 2.62 ± 0.02 U mL^−1. Further, in assay [4] (more active), the “activity relative to guitarrin D” value came out at 10 fold. In addition, in assay [5], the “maximum inhibition of activity” value is recorded as 57%, the IC50 is 195 ± 2.2 µM and the Ki was determined as 38 ± 0.1 µM. Moreover, the type of inhibition result in assay [5] (pNPP substrate) is “non-competitive”. In addition, in assay [1], the “affinity relative to the chelator EDTA” value is on record as 1000 fold and the “inhibitory activity against CmAP” value is given as “pronounced inhibitory activity”.
As for `N[C@@H](Cc1ccccc1)C(=O)O` [L-phenylalanine], the 50% inhibitory concentration (IC50) in assay [2] was 80 µM.
For guitarrin E, the “inhibitory activity against CmAP” value in assay [1] is given as “no inhibitory activity; also recorded: non-inhibitory”.
On to `c1ccc([C@H]2CN3CCSC3=N2)cc1` [levamisole], for which the half-maximal inhibitory concentration (IC50) in assay [2] is 19 µM.
For the compound `O=C(O)c1nc(CO)c2cc[nH]c2c1O` [guitarrin D], in assay [4], the “maximum inhibition of activity” value was 85%, half-maximal inhibition (IC50) was put at 110 ± 0.8 µM, the residual activity is 15% and the inhibition constant (Ki) stood at 20.56 ± 0.06 µM. In assay [4], the type of inhibition result is reported as “mixed type of inhibition” and the “Vmax in the presence of inhibitor” value came to 3.98 ± 0.02 U mL^−1. Further, the “decrease in Vmax” value in assay [4] (with versus without inhibitor) is “more than 2 fold”. Further, in assay [5], the “difference in inhibitory activity compared to guitarrin C” value amounted to 1.2 fold, the “maximum inhibition of activity” value is on record as 57%, 230 ± 1.6 µM corresponded to half-maximal inhibition (IC50) and the Ki came out at 45 ± 0.2 µM. Moreover, in assay [1], the “affinity relative to the chelator EDTA” value is 100 fold and the “inhibitory activity against CmAP” value is reported as “pronounced inhibitory activity”.

Source of the values: article PMC11643677, “In Silico Prediction of Alkaline Phosphatase Interaction with the Natural Inhibitory 5-Azaindoles Guitarrin C and D” (Molecules, 2024).
